Tests used:
Assay type in all cases: biochemical
human PLK4 = molecular target: T1, human PLK4 (Homo sapiens, UniProt O00444); test: PLK4 Inhibition Assay (indirect ELISA); settings: 15 μM ATP, 4 nM GST-PLK4; read-out: PLK4 IC50 Ranges
T1 construct: amino terminal GST fusion of residues 1-391 of human PLK4; made in house; host or cells: E. coli
T1 sequence (O00444 1-391): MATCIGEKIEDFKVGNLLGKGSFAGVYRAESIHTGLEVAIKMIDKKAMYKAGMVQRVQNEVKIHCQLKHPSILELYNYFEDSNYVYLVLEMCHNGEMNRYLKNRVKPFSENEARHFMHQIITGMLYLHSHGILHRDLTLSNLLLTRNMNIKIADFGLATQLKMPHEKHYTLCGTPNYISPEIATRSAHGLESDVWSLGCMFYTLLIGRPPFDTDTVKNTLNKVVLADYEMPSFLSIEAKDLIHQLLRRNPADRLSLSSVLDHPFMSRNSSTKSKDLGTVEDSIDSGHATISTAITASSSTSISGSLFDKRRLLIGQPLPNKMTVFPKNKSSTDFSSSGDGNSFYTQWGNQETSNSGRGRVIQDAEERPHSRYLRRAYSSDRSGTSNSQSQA
Method in brief: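 IC50 values, from 4-point logistic fitting, reflect remaining activity measured by indirect ELISA. Enzyme was GST-PLK4 treated with lambda phosphatase and given a 15-minute pre-incubation with compound before ATP start.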

PLK1 = molecular target: T2, PLK1 (Homo sapiens, UniProt P53350); test: PLK1 Inhibition Assay (Z-Lyte); settings: for inhibition at 10 µM: 10 μM compound, read-out: PLK1 relative inhibition percentage at a dose of 10 μM; for IC50: 25 μM ATP, 8 nM PLK1, read-out: PLK1 IC50 Ranges
T2 construct: purchased Invitrogen PV3501
Protocol: PLK1 inhibition was determined using the Z-Lyte assay kit from Invitrogen (cat #PV3802). […] The % inhibition values were determined according to the manufacturer's directions and IC50 values were obtained using a non-linear 4 point logistic curve fit (XLfit4, IDBS)

PLK2 = molecular target: T3, PLK2 (Homo sapiens, UniProt Q9NYY3); test: PLK2 Inhibition Assay (Z-Lyte); settings: for inhibition at 10 µM: 10 μM compound, read-out: PLK2 relative inhibition percentage at a dose of 10 μM; for IC50: 60 μM ATP, 133 nM PLK2, read-out: PLK2 IC50 Ranges
T3 construct: purchased Invitrogen PV4204
Protocol: (§1) PLK2 inhibition was determined using the Z-Lyte assay kit from Invitrogen (cat #PV3802). The assay was performed using the recommended manufacturer's instructions with 60 μM ATP and 133 nM PLK2 (Invitrogen cat #PV4204). The % inhibition values were determined according to the manufacturer's directions and IC50 values were obtained using a non-linear 4 point logistic curve fit (XLfit4, IDBS)

Aurora A = molecular target: T4, Aurora A (Homo sapiens, UniProt O14965); test: Aurora A Inhibition Assay (Z-Lyte); settings: for inhibition at 10 µM: 10 μM compound, read-out: Aurora A relative inhibition percentage at a dose of 10 μM; for IC50: 20 μM ATP, 12 nM Aurora A, read-out: Aurora A IC50 Ranges
T4 construct: purchased Invitrogen PV3612
T4 sequence (O14965 1-403): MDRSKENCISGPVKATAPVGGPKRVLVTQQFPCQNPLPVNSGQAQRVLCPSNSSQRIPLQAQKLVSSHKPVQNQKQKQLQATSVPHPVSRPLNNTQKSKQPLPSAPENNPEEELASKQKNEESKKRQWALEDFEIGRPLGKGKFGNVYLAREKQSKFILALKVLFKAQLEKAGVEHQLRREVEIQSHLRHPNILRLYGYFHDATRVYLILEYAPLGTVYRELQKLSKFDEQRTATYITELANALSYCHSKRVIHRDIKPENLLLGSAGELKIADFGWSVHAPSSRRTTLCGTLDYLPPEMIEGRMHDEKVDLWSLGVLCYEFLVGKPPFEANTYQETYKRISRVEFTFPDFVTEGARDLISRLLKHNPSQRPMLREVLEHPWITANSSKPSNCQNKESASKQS
Protocol: as §1, with “Aurora A” for “PLK2”, “Invitrogen.” for “Invitrogen (cat #PV3802).”, “20” for “60”, “12” for “133”, “#PV3612).” for “#PV4204).”

Aurora B = molecular target: T5, Aurora B (Homo sapiens, UniProt Q96GD4); test: Aurora B Inhibition Assay (Z-Lyte); settings: for IC50: 128 μM ATP, 28 nM Aurora B, read-out: Aurora B IC50 Ranges; for inhibition at 10 µM: 10 μM compound, read-out: Aurora B relative inhibition percentage at a dose of 10 μM
T5 construct: purchased Invitrogen PV3970
Protocol: as §1, with “Aurora B” for “PLK2”, “Invitrogen.” for “Invitrogen (cat #PV3802).”, “128” for “60”, “28” for “133”, “#PV3970).” for “#PV4204).”

T5 sequence (Q96GD4 whole entry): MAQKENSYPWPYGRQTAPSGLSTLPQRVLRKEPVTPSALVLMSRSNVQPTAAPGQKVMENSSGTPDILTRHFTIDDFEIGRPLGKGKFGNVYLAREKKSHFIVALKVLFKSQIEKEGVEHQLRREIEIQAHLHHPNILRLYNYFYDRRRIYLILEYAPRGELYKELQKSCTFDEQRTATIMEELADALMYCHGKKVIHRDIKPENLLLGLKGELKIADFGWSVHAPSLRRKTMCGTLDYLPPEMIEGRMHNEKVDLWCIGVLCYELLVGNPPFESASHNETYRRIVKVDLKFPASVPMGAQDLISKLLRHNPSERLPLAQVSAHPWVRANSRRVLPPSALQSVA
T2 sequence (P53350 whole entry): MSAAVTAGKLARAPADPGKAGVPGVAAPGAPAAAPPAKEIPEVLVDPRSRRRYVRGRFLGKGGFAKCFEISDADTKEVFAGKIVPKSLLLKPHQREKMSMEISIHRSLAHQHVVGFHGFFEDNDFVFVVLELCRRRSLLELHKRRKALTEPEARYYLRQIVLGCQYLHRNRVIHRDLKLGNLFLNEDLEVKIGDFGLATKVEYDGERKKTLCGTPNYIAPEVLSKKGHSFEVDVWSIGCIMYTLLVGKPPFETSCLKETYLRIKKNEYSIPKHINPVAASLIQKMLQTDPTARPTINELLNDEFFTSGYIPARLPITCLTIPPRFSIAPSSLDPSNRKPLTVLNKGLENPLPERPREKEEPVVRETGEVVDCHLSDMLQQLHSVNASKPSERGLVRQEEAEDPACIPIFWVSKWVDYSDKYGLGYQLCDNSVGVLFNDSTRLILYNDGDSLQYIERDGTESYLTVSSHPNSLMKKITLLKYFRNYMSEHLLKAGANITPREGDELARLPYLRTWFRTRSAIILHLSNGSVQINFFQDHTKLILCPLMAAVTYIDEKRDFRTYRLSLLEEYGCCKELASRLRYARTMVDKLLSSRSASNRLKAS
T3 sequence (Q9NYY3 whole entry): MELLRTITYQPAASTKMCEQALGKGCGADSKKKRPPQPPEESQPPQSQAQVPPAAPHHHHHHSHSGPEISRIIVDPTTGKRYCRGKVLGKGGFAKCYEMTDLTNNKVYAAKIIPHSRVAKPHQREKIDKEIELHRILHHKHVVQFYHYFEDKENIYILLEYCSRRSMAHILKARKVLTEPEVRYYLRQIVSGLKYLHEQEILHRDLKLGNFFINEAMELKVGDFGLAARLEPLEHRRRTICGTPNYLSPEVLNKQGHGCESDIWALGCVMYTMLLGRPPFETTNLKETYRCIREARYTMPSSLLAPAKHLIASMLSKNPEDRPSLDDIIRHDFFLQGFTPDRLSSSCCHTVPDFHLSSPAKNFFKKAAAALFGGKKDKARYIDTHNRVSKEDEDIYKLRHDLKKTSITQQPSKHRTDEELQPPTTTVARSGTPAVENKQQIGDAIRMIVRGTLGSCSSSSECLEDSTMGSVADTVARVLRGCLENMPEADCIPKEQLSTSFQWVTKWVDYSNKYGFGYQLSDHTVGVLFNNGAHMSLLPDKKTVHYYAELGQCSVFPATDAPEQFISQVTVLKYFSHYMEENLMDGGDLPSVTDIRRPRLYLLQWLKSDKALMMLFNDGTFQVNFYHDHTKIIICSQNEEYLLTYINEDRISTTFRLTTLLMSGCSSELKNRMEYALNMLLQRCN

| IC50 (human PLK4) [µM] | inhibition at 10 µM (PLK1) [%] | inhibition at 10 µM (PLK2) [%] | inhibition at 10 µM (Aurora A) [%] | IC50 (Aurora B) [µM] | IC50 (PLK1) [µM] | IC50 (Aurora A) [µM] | IC50 (PLK2) [µM] | inhibition at 10 µM (Aurora B) [%] | SMILES |
| --- | --- | --- | --- | --- | --- | --- | --- | --- | --- |
| < 5 | < 50 | < 50 | > 50 | < 5 | – | – | – | – | COc1ccc2c(c1)/C(=C\c1ccc3c(/C=C/c4ccncc4)n[nH]c3c1)C(=O)N2 [Example A86, (E)-5-methoxy-3-((3-((E)-2-(pyridin-4-yl)vinyl)-1H-indazol-6-yl)methylene)indolin-2-one] |
| < 5 | – | > 50 | – | < 5 | > 50 | 5 to 50 | – | – | O=C1Nc2c(Cl)cccc2/C1=C\c1ccc2cn[nH]c2c1 [Example A43, (E)-3-((1H-indazol-6-yl)methylene)-7-chloroindolin-2-one] |
| 5 to 50 | – | – | < 50 | < 5 | > 50 | – | > 50 | – | CC(C)(C)OC(=O)Nc1ccc2c(c1)NC(=O)/C2=C/c1ccc2cn[nH]c2c1 [Example A37, (E)-tert-butyl 3-((1H-indazol-6-yl)methylene)-2-oxoindolin-6-ylcarbamate] |
| < 5 | < 50 | < 50 | – | < 5 | – | < 5 | – | – | COc1ccc2c(c1)/C(=C\c1ccc3c(/C=C/c4ccncc4Cl)n[nH]c3c1)C(=O)N2 [Example A119, (E)-3-((3-((E)-2-(3-chloropyridin-4-yl)vinyl)-1H-indazol-6-yl)methyl-ene)-5-methoxyindolin-2-one] |
| < 5 | > 50 | < 50 | – | < 5 | – | < 5 | – | – | CN1CCN(C(=O)c2cccc(/C=C/c3n[nH]c4cc(C=C5C(=O)Nc6ccccc65)ccc34)c2)CC1 (mixture of isomers) [Example A107, (E and Z)-3-((3-((E)-3-(4-methylpiperazine-1-carbonyl)styryl)-1H-indazol-6-yl)methylene)indolin-2-one 2,2,2-trifluoroacetate] |
| < 5 | – | < 50 | < 50 | < 5 | > 50 | – | – | – | O=C1Nc2ccc(Br)cc2/C1=C\c1ccc2cn[nH]c2c1 [Example A35, (E)-3-((1H-indazol-6-yl)methylene)-5-bromoindolin-2-one] |
| < 5 | – | – | – | < 5 | > 50 | < 5 | < 5 | – | Nc1cccc2c1NC(=O)/C2=C/c1ccc2cn[nH]c2c1 [Example A56, (E)-3-((1H-indazol-6-yl)methylene)-7-aminoindolin-2-one] |
| < 5 | – | – | – | < 5 | 5 to 50 | < 5 | < 5 | – | O=C1Nc2ccc(F)cc2/C1=C\c1ccc2cn[nH]c2c1 [Example A16, (E)-3-((1H-indazol-6-yl)methylene)-5-fluoroindolin-2-one] |
| < 5 | > 50 | > 50 | > 50 | – | – | – | – | > 50 | O=C1Nc2ncccc2/C1=C\c1ccc2cn[nH]c2c1 [Example A67, (E)-3-((1H-indazol-6-yl)methylene)-1H-pyrrolo[2,3-b]pyridin-2(3H)-one] |
| < 5 | – | < 50 | > 50 | – | 5 to 50 | – | – | < 50 | CC(=O)Nc1ccc2c(c1)NC(=O)/C2=C/c1ccc2cn[nH]c2c1 [Example A13, (E)-N-(3-((1H-indazol-6-yl)methylene)-2-oxoindolin-6-yl)acetamide] |
| < 5 | < 50 | < 50 | – | < 5 | – | < 5 | – | – | COC(=O)/C=C/c1n[nH]c2cc(/C=C3/C(=O)Nc4ccccc43)ccc12 [Example A61, (E)-methyl 3-(6-((E)-(2-oxoindolin-3-ylidene)methyl)-1H-indazol-3-yl)acrylate] |
| < 5 | < 50 | < 50 | – | < 5 | – | < 5 | – | – | COc1ccc2c(c1)/C(=C\c1ccc3c(-c4ccc(N5CCOCC5)nc4)n[nH]c3c1)C(=O)N2 [Example A112, (E)-5-methoxy-3-((3-(6-morpholinopyridin-3-yl)-1H-indazol-6-yl)-methylene)indolin-2-one] |
| < 5 | < 50 | < 50 | – | < 5 | – | < 5 | – | – | Cc1ccc2c(c1)C(=Cc1ccc3cn[nH]c3c1)C(=O)N2 (mixture of isomers) [Example A81, (E and Z)-3-((1H-indazol-6-yl)methylene)-5-methylindolin-2-one] |
| < 5 | < 50 | < 50 | – | < 5 | – | < 5 | – | – | O=C1Nc2ccccc2/C1=C\c1ccc2c(/C=C/c3cccnc3)n[nH]c2c1 [Example A113, (E)-3-((3-((E)-2-(pyridin-3-yl)vinyl)-1H-indazol-6-yl)methylene)-indolin-2-one] |
| < 5 | < 50 | < 50 | – | < 5 | – | < 5 | – | – | CCOC(=O)/C=C/c1n[nH]c2cc(C=C3C(=O)Nc4ncccc43)ccc12 (mixture of isomers) [Example A110, (E and Z)-ethyl 3-(6-((E)-(2-oxo-1H-pyrrolo[2,3-b]pyridin-3(2H-ylidene)methyl)-1H-indazol-3-yl)acrylate] |
| < 5 | – | > 50 | > 50 | < 5 | > 50 | – | – | – | O=C1Nc2ccccc2/C1=C\c1cc(-c2ccncc2)c2cn[nH]c2c1 [Example A54a, (E)-3-((4-(pyridin-4-yl)-1H-indazol-6-yl)methylene)indolin-2-one] |
| < 5 | < 50 | < 50 | > 50 | < 5 | – | – | – | – | O=C1Nc2ccccc2C1=Cc1ccc2c(-c3cncnc3)n[nH]c2c1 (mixture of isomers) [Example A100, (E and Z)-3-((3-(pyrimidin-5-yl)-1H-indazol-6-yl)methylene)-indolin-2-one] |
| < 5 | – | > 50 | – | < 5 | > 50 | < 5 | – | – | O=C1Nc2c(F)cccc2/C1=C\c1ccc2cn[nH]c2c1 [Example A42, (E)-3-((1H-indazol-6-yl)methylene)-7-fluoroindolin-2-one] |
| < 5 | < 50 | < 50 | – | < 5 | – | < 5 | – | – | COc1ccc2c(c1)C(=Cc1ccc3c(/C=C/C(=O)N4CCN(C)CC4)n[nH]c3c1)C(=O)N2 (mixture of isomers) [Example A118, (E and Z)-5-methoxy-3-((3-((E)-3-(4-methylpiperazin-1-yl)-3-oxoprop-1-enyl)-1H-indazol-6-yl)methylene)indolin-2-one] |

— patent US8765748B2, “Indazolyl, benzimidazolyl, benzotriazolyl substituted indolinone derivatives as kinase inhibitors useful in the treatment of cancer” (University Health Network, priority 2007, dated 2014)
